Values quoted from earlier work as cited in publication PMC6500982 (Cancer Science, 2019).
Like-named read-outs stand apart in the source and are kept apart here.

Test system: ABC DLBCL tumors
Conditions: cited from earlier work

C=CC(=O)N1CCC[C@@H](n2nc(-c3ccc(Oc4ccccc4)cc3)c3c(N)ncnc32)C1 [ibrutinib]
Patients who responded to treatment (ABC tumors with B‐cell receptor mutations who also had MYD88 mutations): 80%
Patients who responded to treatment (ABC tumors with B‐cell receptor mutations): 55.5%
